Measurements: PubChem BioAssay (NCI)
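48-hour exposure; five concentrations; linearly interpolated endpoints. GI50: concentration for 50% inhibition of growth. TGI marks complete inhibition of growth.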

Tests used:
Experiment in all cases: NCI tumour cell line growth inhibition, 48 h
SR leukemia = tested on: SR leukemia
OVCAR-4 ovarian = tested on: OVCAR-4 ovarian
HCT-15 colon = tested on: HCT-15 colon
SK-MEL-28 melanoma = tested on: SK-MEL-28 melanoma
SK-OV-3 ovarian = tested on: SK-OV-3 ovarian
OVCAR-8 ovarian = tested on: OVCAR-8 ovarian
BT-549 breast = tested on: BT-549 breast
U251 CNS = tested on: U251 CNS
M14 melanoma = tested on: M14 melanoma
CAKI-1 renal = tested on: CAKI-1 renal
A498 renal = tested on: A498 renal
K-562 leukemia = tested on: K-562 leukemia
SNB-75 CNS = tested on: SNB-75 CNS
OVCAR-3 ovarian = tested on: OVCAR-3 ovarian
SF-268 CNS = tested on: SF-268 CNS
HCC-2998 colon = tested on: HCC-2998 colon
HT29 colon = tested on: HT29 colon
UO-31 renal = tested on: UO-31 renal
SW-620 colon = tested on: SW-620 colon
SF-539 CNS = tested on: SF-539 CNS
MOLT-4 leukemia = tested on: MOLT-4 leukemia
NCI/ADR-RES ovarian = tested on: NCI/ADR-RES ovarian
RPMI-8226 leukemia = tested on: RPMI-8226 leukemia
UACC-62 melanoma = tested on: UACC-62 melanoma
786-0 renal = tested on: 786-0 renal
ACHN renal = tested on: ACHN renal
TK-10 renal = tested on: TK-10 renal
OVCAR-5 ovarian = tested on: OVCAR-5 ovarian
NCI-H23 lung = tested on: NCI-H23 lung
SN12C renal = tested on: SN12C renal
LOX IMVI melanoma = tested on: LOX IMVI melanoma
PC-3 prostate = tested on: PC-3 prostate
NCI-H226 lung = tested on: NCI-H226 lung
A549 NSCLC = tested on: A549 NSCLC
HS 578T breast = tested on: HS 578T breast
HL-60(TB) leukemia = tested on: HL-60(TB) leukemia
SNB-19 CNS = tested on: SNB-19 CNS
MCF7 breast = tested on: MCF7 breast
EKVX NSCLC = tested on: EKVX NSCLC
NCI-H460 lung = tested on: NCI-H460 lung
HOP-92 NSCLC = tested on: HOP-92 NSCLC
HOP-62 NSCLC = tested on: HOP-62 NSCLC
KM12 colon = tested on: KM12 colon
IGROV1 ovarian = tested on: IGROV1 ovarian
MDA-MB-231 breast = tested on: MDA-MB-231 breast
MDA-MB-435 = tested on: MDA-MB-435
HCT-116 colon = tested on: HCT-116 colon
RXF 393 renal = tested on: RXF 393 renal
SF-295 CNS = tested on: SF-295 CNS
UACC-257 melanoma = tested on: UACC-257 melanoma
NCI-H522 lung = tested on: NCI-H522 lung
SK-MEL-2 melanoma = tested on: SK-MEL-2 melanoma
MALME-3M melanoma = tested on: MALME-3M melanoma
CCRF-CEM leukemia = tested on: CCRF-CEM leukemia
SK-MEL-5 melanoma = tested on: SK-MEL-5 melanoma
COLO 205 colon = tested on: COLO 205 colon
T-47D breast = tested on: T-47D breast
DU-145 prostate = tested on: DU-145 prostate

COc1ccc2c(c1)C/C(=C\c1ccc(O)c(OC)c1)C2=O
TGI (SR leukemia): > 100 µM
TGI (OVCAR-4 ovarian): > 100 µM
TGI (HCT-15 colon): > 100 µM
TGI (SK-MEL-28 melanoma): > 100 µM
TGI (SK-OV-3 ovarian): > 100 µM
TGI (OVCAR-8 ovarian): > 100 µM
TGI (BT-549 breast): > 100 µM
TGI (U251 CNS): > 100 µM
TGI (M14 melanoma): > 100 µM
TGI (CAKI-1 renal): > 100 µM
TGI (A498 renal): > 100 µM
TGI (K-562 leukemia): > 100000 nM
TGI (SNB-75 CNS): > 100 µM
TGI (OVCAR-3 ovarian): > 100 µM
TGI (SF-268 CNS): > 100 µM
TGI (HCC-2998 colon): > 100 µM
TGI (HT29 colon): > 100 µM
TGI (UO-31 renal): > 100 µM
TGI (SW-620 colon): > 100 µM
TGI (SF-539 CNS): > 100 µM
TGI (MOLT-4 leukemia): > 100 µM
TGI (NCI/ADR-RES ovarian): > 100 µM
TGI (RPMI-8226 leukemia): > 100000 nM
TGI (UACC-62 melanoma): > 100000 nM
TGI (786-0 renal): > 100 µM
TGI (ACHN renal): > 100 µM
TGI (TK-10 renal): > 100 µM
TGI (OVCAR-5 ovarian): > 100 µM
TGI (NCI-H23 lung): > 100 µM
TGI (SN12C renal): > 100 µM
TGI (LOX IMVI melanoma): > 100000 nM
TGI (PC-3 prostate): > 100 µM
TGI (NCI-H226 lung): > 100 µM
TGI (A549 NSCLC): > 100 µM
TGI (HS 578T breast): > 100 µM
TGI (HL-60(TB) leukemia): > 100000 nM
TGI (SNB-19 CNS): > 100 µM
TGI (MCF7 breast): > 100 µM
TGI (EKVX NSCLC): > 100 µM
TGI (NCI-H460 lung): > 100 µM

CC(C)(C)c1ccc([I+]c2ccc(C(C)(C)C)cc2)cc1
GI50 (HOP-92 NSCLC): 1250 nM
TGI (HOP-92 NSCLC): 3.5 µM
GI50 (SR leukemia): 935 nM
TGI (SR leukemia): 3.15 µM
GI50 (HOP-62 NSCLC): 1830 nM
TGI (HOP-62 NSCLC): 3.71 µM
GI50 (OVCAR-4 ovarian): 658 nM
TGI (OVCAR-4 ovarian): 11 µM
GI50 (HCT-15 colon): 5.08 µM
TGI (HCT-15 colon): 18.2 µM
GI50 (KM12 colon): 1040 nM
TGI (KM12 colon): 2830 nM
GI50 (SK-MEL-28 melanoma): 1110 nM
TGI (SK-MEL-28 melanoma): 3.14 µM
GI50 (SK-OV-3 ovarian): 2310 nM
TGI (SK-OV-3 ovarian): 6.75 µM
GI50 (IGROV1 ovarian): 2330 nM
TGI (IGROV1 ovarian): 12.2 µM
GI50 (MDA-MB-231 breast): 1350 nM
TGI (MDA-MB-231 breast): 2830 nM
GI50 (OVCAR-8 ovarian): 1440 nM
TGI (OVCAR-8 ovarian): 3.72 µM
GI50 (MDA-MB-435): 948 nM
TGI (MDA-MB-435): 3.01 µM
GI50 (HCT-116 colon): 1250 nM
TGI (HCT-116 colon): 4 µM
GI50 (U251 CNS): 1470 nM
TGI (U251 CNS): 3.59 µM
GI50 (RXF 393 renal): 1990 nM
TGI (RXF 393 renal): 5.52 µM
GI50 (M14 melanoma): 1470 nM
TGI (M14 melanoma): 4.09 µM
GI50 (CAKI-1 renal): 8.3 µM
TGI (CAKI-1 renal): 20.8 µM
GI50 (A498 renal): 1370 nM
TGI (A498 renal): 3.81 µM
GI50 (K-562 leukemia): 550 nM
TGI (K-562 leukemia): 2460 nM
GI50 (SF-295 CNS): 2220 nM
TGI (SF-295 CNS): 5.28 µM
GI50 (SNB-75 CNS): 1440 nM
TGI (SNB-75 CNS): 6.1 µM
GI50 (OVCAR-3 ovarian): 1440 nM
TGI (OVCAR-3 ovarian): 6.87 µM
GI50 (SF-268 CNS): 1930 nM
TGI (SF-268 CNS): 7.53 µM
GI50 (HCC-2998 colon): 1780 nM
TGI (HCC-2998 colon): 9.09 µM
GI50 (HT29 colon): 1340 nM
TGI (HT29 colon): 4.78 µM
GI50 (UACC-257 melanoma): 595 nM
TGI (UACC-257 melanoma): 2540 nM
GI50 (UO-31 renal): 3.62 µM
TGI (UO-31 renal): 14.8 µM
GI50 (SW-620 colon): 1560 nM
TGI (SW-620 colon): 10.7 µM
GI50 (SF-539 CNS): 2080 nM
TGI (SF-539 CNS): 10.2 µM
GI50 (MOLT-4 leukemia): 1960 nM
TGI (MOLT-4 leukemia): 7.79 µM
GI50 (NCI/ADR-RES ovarian): 21.5 µM
TGI (NCI/ADR-RES ovarian): 89.5 µM
GI50 (NCI-H522 lung): 1390 nM
TGI (NCI-H522 lung): 4.8 µM
GI50 (RPMI-8226 leukemia): 389 nM
TGI (RPMI-8226 leukemia): 1990 nM
GI50 (UACC-62 melanoma): 690 nM
TGI (UACC-62 melanoma): 2310 nM
GI50 (786-0 renal): 1690 nM
TGI (786-0 renal): 3.77 µM
GI50 (SK-MEL-2 melanoma): 1510 nM
TGI (SK-MEL-2 melanoma): 3.86 µM
GI50 (ACHN renal): 3.25 µM
TGI (ACHN renal): 12.2 µM
GI50 (TK-10 renal): 2620 nM
TGI (TK-10 renal): 9.75 µM
GI50 (MALME-3M melanoma): 545 nM
TGI (MALME-3M melanoma): 2010 nM
GI50 (OVCAR-5 ovarian): 3.24 µM
TGI (OVCAR-5 ovarian): 12.9 µM
GI50 (NCI-H23 lung): 1690 nM
TGI (NCI-H23 lung): 7.57 µM
GI50 (SN12C renal): 1990 nM
TGI (SN12C renal): 5.21 µM
GI50 (LOX IMVI melanoma): 1310 nM
TGI (LOX IMVI melanoma): 2740 nM
GI50 (PC-3 prostate): 1170 nM
TGI (PC-3 prostate): 6.05 µM
GI50 (NCI-H226 lung): 1290 nM
TGI (NCI-H226 lung): 5.32 µM
GI50 (A549 NSCLC): 2430 nM
TGI (A549 NSCLC): 6.65 µM
GI50 (HS 578T breast): 1980 nM
TGI (HS 578T breast): 7.69 µM
GI50 (CCRF-CEM leukemia): 1170 nM
TGI (CCRF-CEM leukemia): 9.14 µM
GI50 (HL-60(TB) leukemia): 550 nM
TGI (HL-60(TB) leukemia): 2460 nM
GI50 (SK-MEL-5 melanoma): 348 nM
TGI (SK-MEL-5 melanoma): 1190 nM
GI50 (COLO 205 colon): 1060 nM
TGI (COLO 205 colon): 2800 nM
GI50 (SNB-19 CNS): 1110 nM
TGI (SNB-19 CNS): 3.24 µM
GI50 (T-47D breast): 745 nM
TGI (T-47D breast): 5.67 µM
GI50 (DU-145 prostate): 1700 nM
TGI (DU-145 prostate): 3.53 µM
GI50 (MCF7 breast): 1350 nM
TGI (MCF7 breast): 9.17 µM
GI50 (EKVX NSCLC): 1420 nM
TGI (EKVX NSCLC): 5.24 µM
GI50 (NCI-H460 lung): 1660 nM
TGI (NCI-H460 lung): 4.16 µM
